Converted amounts (≈) assume the structure as drawn.
Assays:
[1] = Plasma stability, dog plasma (HPLC-MS); assay type: in vitro ADME; conditions: 2 μM, 37° C.
Procedure: (§1) Plasma stability determination of the test compounds in rat, dog, cynomolgus monkey and human plasma is performed using HPLC-MS. For rat, incubations are carried out in 96-well polypropylene plates in 5 aliquots of 70 μL each (one for each time point). […] Five time points are analyzed (0, 15, 120, 480 and 1440 min). For dog, monkey and human, test compounds (2 μM, final solvent concentration 1%) were also incubated at 37° C. and analyzed at five time points (0, 10, 30, 60 and 120 min). All incubations are performed in duplicates. The samples are analyzed by HPLC-MS. The percentage of parent compound remaining after incubation in plasma is determined.

[2] = Plasma stability, rat plasma (HPLC-MS); assay type: in vitro ADME; conditions: 10 μM, 37° C.
Procedure: as §1

[3] = Plasma stability, human plasma (HPLC-MS); assay type: in vitro ADME; conditions: 2 μM, 37° C.
Procedure: as §1, with “For dog, monkey and human, test compounds (2 μM, final solvent concentration 1%) were also incubated at 37° C. and analyzed at five time points (0, 10, 30, 60 and 120 min).” left out

[4] = Plasma stability, cynomolgus monkey plasma (HPLC-MS); assay type: in vitro ADME; conditions: 2 μM, 37° C.
Procedure: as §1, with “For dog, monkey and human, test compounds (2 μM, final solvent concentration 1%) were also incubated at 37° C. and analyzed at five time points (0, 10, 30, 60 and 120 min).” left out

[5] = Clinical observations for dogs in pharmacokinetic studies; assay type: in vivo, Beagle dogs; conditions: right leg test article
Procedure: Weight monitoring was done every week.
The dose formulation (concentration—400 mg base equivalents/ml in sesame oil+1% benzyl alcohol, unless otherwise specified) was administered via deep intramuscularly (unless otherwise specified). The injection vehicle was also dosed via deep intramuscular route (unless otherwise specified) on contralateral site of each animal at study initiation. The animals were sedated with Propofol at 6 mg/kg via IV administration. Following sedation hair was carefully removed from around the injection site and the area gently cleaned. Care will be taken to avoid irritating skin during shaving and cleaning the injection site. Then dogs will be dosed with deep IM administration. At least 2.5 cm depth from the surface into the central aspect of the quadriceps or biceps femoris muscle, by angling the needle toward the femur. If the needle hits the femur, simply draws back slightly and then inject. The dose volume will be determined by the animals' body weight collected on the morning of dosing day. For repeated administration, the injection sites may be rotated to minimize tissue injury.

[6] = Solubility determination in oil (cottonseed oil, sesame oil), HPLC
Procedure: A known amount of test substance (˜40 mg) was weighed into the vial, 100 μL of oil was added and heated to 60° C. and then system was slurried to reach equilibrium. […] Then the clear solution was placed at room temperature (25° C.) for 24 h to confirm whether there was solid precipitation. Extra oil was added into the vial once compound precipitated out and then the system was re-equilibrated at 1000 rpm at room temperature (25° C.). Final concentration was determined by HPLC method as described below in Table 6a and 6b.

[7] = Polymorph screening of solid state drug substances; assay type: physicochemical; conditions: for Dry method and appearance: after stirring at 50 °C for 72 hours; for XRPD results (Dried): dried solid
[8] = Equilibrium solubility in water (Table 10); conditions: for solubility thermodynamic: water, 40 °C, thermodynamic from solid
[9] = Heating Temp. 60 °C, Obs. Temp. 40 °C
[10] = Heating Temp. 60 °C, Obs. Temp. 25 °C
[11] = Heating Temp. 40 °C, Obs. Temp. 40 °C

CCCCCCCCCCCC(=O)OCN1C(=O)CCc2ccc(OCCCCN3CCN(c4cccc(Cl)c4Cl)CC3)cc21 [Aripiprazole Lauroxil, reference compound]
% remaining at time point in minutes, 0 min [1]: 100%
% remaining at time point in minutes, 0 min [2]: 100%
% remaining at time point in minutes, 15 min [2]: 84%
% remaining at time point in minutes, 1440 min [2]: 46%
% remaining at time point in minutes, 0 min [3]: 100%
% remaining at time point in minutes, 120 min ([3]; 120 min): 80%
% remaining at time point in minutes, 0 min [4]: 100%

C=C1CC[C@@]2(O)C3Cc4ccc(OC(=O)CCCCCCC/C=C/CCCCCCCC)c5c4[C@@]2(CCN3CC2CC2)[C@H]1O5 [Compound 15, (4aS,7aS,12bS)-3-(cyclopropylmethyl)-4a-hydroxy-7-methylene-2,3,4,4a,5,6,7,7a-octahydro-1H-4,12-methanobenzofuro[3,2-e]isoquinolin-9-yl (E)-octadec-9-enoate]
% remaining at time point in minutes, 0 min [1]: 100%
% remaining at time point in minutes, 0 min [2]: 100%
% remaining at time point in minutes, 15 min [2]: 72%
% remaining at time point in minutes, 480 min [2]: 52%
% remaining at time point in minutes, 1440 min [2]: 35%
Clinical observations, R-TA ([5]; 48 mg/kg, Day 35, dogs D1001, D1002, D1003): rashes subside on the leg
Clinical observations, R-TA ([5]; Day 7, dogs D1501, D1502, D1503, dose not given): Swelling 8 * 4 cm
% remaining at time point in minutes, 0 min [3]: 100%
% remaining at time point in minutes, 1440 min ([3]; 1440 min): 109.6%
% remaining at time point in minutes, 0 min [4]: 100%

CCCCCCCCCCCCCCCCOC(=O)Oc1ccc2c3c1O[C@H]1C(=O)CC[C@@]4(O)C(C2)N(CC2CC2)CC[C@]314 [Compound 21, (4aS,7aR,12bS)-3-(cyclopropylmethyl)-4a-hydroxy-7-oxo-2,3,4,4a,5,6,7,7a-octahydro-1H-4,12-methanobenzofuro[3,2-e]isoquinolin-9-yl hexadecyl carbonate]
% remaining at time point in minutes, 0 min [2]: 100%
Approximate Solubility in Excipient: Cottonseed oil [6, 9]: 101 to 134.8 mg/mL
Approximate Solubility in Excipient: Sesame oil [6, 9]: 101 to 134.5 mg/mL
Dry method and appearance ([7]; Acetone): Evaporation/white powder
XRPD results (Dried) ([7]; Acetone): Pattern A
Dry method and appearance ([7]; EtOAc): Evaporation/white powder
XRPD results (Dried) ([7]; EtOAc): Pattern A
Dry method and appearance ([7]; Heptane): Evaporation/white powder
XRPD results (Dried) ([7]; Heptane): Pattern A
Dry method and appearance ([7]; Isopropanol): Evaporation/white powder
XRPD results (Dried) ([7]; Isopropanol): Pattern A
Dry method and appearance ([7]; MTBE): Evaporation/white powder
XRPD results (Dried) ([7]; MTBE): Pattern A

CCCCCCCC/C=C/CCCCCCCC(=O)OCOc1ccc2c3c1O[C@H]1C(=O)CC[C@@]4(O)C(C2)N(CC2CC2)CC[C@]314 [Compound 26, (((4aS,7aR,12bS)-3-(cyclopropylmethyl)-4a-hydroxy-7-oxo-2,3,4,4a,5,6,7,7a-octahydro-1H-4,12-methanobenzofuro[3,2-e]isoquinolin-9-yl)oxy)methyl (E)-octadec-9-enoate]
Approximate Solubility in Excipient: Cottonseed oil [6, 10]: 204.3 to 239 mg/mL

C=C1CC[C@@]2(O)C3Cc4ccc(OC(=O)CCCCCCC/C=C\C/C=C\CCCCC)c5c4[C@@]2(CCN3CC2CC2)[C@H]1O5 [Compound 37, (4aS,7aS,12bS)-3-(cyclopropylmethyl)-4a-hydroxy-7-methylene-2,3,4,4a,5,6,7,7a-octahydro-1H-4,12-methanobenzofuro[3,2-e]isoquinolin-9-yl (9Z,12Z)-octadeca-9,12-dienoate]
Approximate Solubility in Excipient: Cottonseed oil [6, 10]: 68.5 to 82 mg/mL

C=C1CC[C@@]2(O)C3Cc4ccc(OC(=O)CCC5CCCC5)c5c4[C@@]2(CCN3CC2CC2)[C@H]1O5 [Compound 39, (4aS,7aS,12bS)-3-(cyclopropylmethyl)-4a-hydroxy-7-methylene-2,3,4,4a,5,6,7,7a-octahydro-1H-4,12-methanobenzofuro[3,2-e]isoquinolin-9-yl 3-cyclopentylpropanoate]
Approximate Solubility in Excipient: Cottonseed oil [6, 11]: 225 to 402.2 mg/mL

CCCCC/C=C\C/C=C\CCCCCCCC(=O)Oc1ccc2c3c1O[C@H]1C(=O)CC[C@@]4(O)C(C2)N(CC2CC2)CC[C@]314 [Compound 53, (4aS,7aR,12bS)-3-(cyclopropylmethyl)-4a-hydroxy-7-oxo-2,3,4,4a,5,6,7,7a-octahydro-1H-4,12-methanobenzofuro[3,2-e]isoquinolin-9-yl (9Z,12Z)-octadeca-9,12-di.enoate]
% remaining at time point in minutes, 0 min [2]: 100%
% remaining at time point in minutes, 480 min [2]: 7.3%
% remaining at time point in minutes, 1440 min [2]: 1.9%
Approximate Solubility in Excipient: Cottonseed oil [6, 10]: >408.5 mg/mL
Approximate Solubility in Excipient: Sesame oil [6, 10]: >401.9 mg/mL
Approximate Solubility in Excipient: Sesame oil [6, 9]: >406.3 mg/mL

CCCCCCCCCCCCCCCC(=O)Oc1ccc2c3c1O[C@H]1C(=O)CC[C@@]4(O)C(C2)N(CC2CC2)CC[C@]314 [Compound 55, (4aS,7aR,12bS)-3-(cyclopropylmethyl)-4a-hydroxy-7-oxo-2,3,4,4a,5,6,7,7a-octahydro-1H-4,12-methanobenzofuro[3,2-e]isoquinolin-9-yl palmitate]
% remaining at time point in minutes, 0 min [2]: 100%
Dry method and appearance ([7]; Acetone): Evaporation/white powder
XRPD results (Dried) ([7]; Acetone): Pattern B
Dry method and appearance ([7]; EtOAc): Evaporation/white powder
XRPD results (Dried) ([7]; EtOAc): Pattern B
Dry method and appearance ([7]; Heptane): Evaporation/white powder
XRPD results (Dried) ([7]; Heptane): Pattern B
Dry method and appearance ([7]; Isopropanol): Evaporation/white powder
XRPD results (Dried) ([7]; Isopropanol): Pattern B
Dry method and appearance ([7]; MTBE): Evaporation/white powder
XRPD results (Dried) ([7]; MTBE): Pattern B

C=C1CC[C@@]2(O)C3Cc4ccc(OC(=O)CCCCCCCCCCCCCCC)c5c4[C@@]2(CCN3CC2CC2)[C@H]1O5 [Compound 56, (4aS,7aS,12bS)-3-(cyclopropylmethyl)-4a-hydroxy-7-methylene-2,3,4,4a,5,6,7,7a-octahydro-1H-4,12-methanobenzofuro[3,2-e]isoquinolin-9-yl palmitate, reference compound]
% remaining at time point in minutes, 0 min [2]: 100%
solubility thermodynamic [8]: 0.0066 mg/mL (≈ 11.4 µM)

C=C1CC[C@@]2(O)C3Cc4ccc(OC(=O)CCCCCCCCCCC)c5c4[C@@]2(CCN3CC2CC2)[C@H]1O5 [Compound 59, (4aS,7aS,12bS)-3-(cyclopropylmethyl)-4a-hydroxy-7-methylene-2,3,4,4a,5,6,7,7a-octahydro-1H-4,12-methanobenzofuro[3,2-e]isoquinolin-9-yl dodecanoate, reference compound]
% remaining at time point in minutes, 0 min [2]: 100%
% remaining at time point in minutes, 15 min [2]: 5.9%
% remaining at time point in minutes, 120 min ([2]; 120 min): 0.7%
% remaining at time point in minutes, 480 min [2]: 0.2%
% remaining at time point in minutes, 1440 min [2]: 0%
Equilibrium solubility Water [8, 11]: <0.001 mg/mL
Approximate Solubility in Excipient: Cottonseed oil [6, 10]: >414 mg/mL
Approximate Solubility in Excipient: Sesame oil [6, 10]: >393.3 mg/mL

CCCCCCCCCCCCCCCC(=O)OC1CCCn2c1nc(C)c(CCN1CCC(c3noc4cc(F)ccc34)CC1)c2=O (centres unmarked) [Paliperidone palmitate, reference compound]
% remaining at time point in minutes, 0 min [1]: 100%
% remaining at time point in minutes, 0 min [3]: 100%
% remaining at time point in minutes, 0 min [4]: 100%
% remaining at time point in minutes, 15 min ([4]; 15 min): 92%

C=C1CC[C@@]2(O)[C@H]3Cc4ccc(O)c5c4[C@@]2(CCN3CC2CC2)[C@H]1O5 [nalmefene, 17-cyclopropylmethyl-4,5α-epoxy-6-methylenemorphinan-3,14-diol]
solubility thermodynamic [8]: 0.025 mg/mL (≈ 73.7 µM)
